For assay [1], the system named is Proto-oncogene tyrosine-protein kinase receptor Ret (Homo sapiens), P07949 [E762Q]. The experiment in a line: (§1) Selectivity interaction (ProQinase) EUB0000171b RET.
In assay [2] the test system is Proto-oncogene tyrosine-protein kinase receptor Ret (Homo sapiens), P07949 [G691S]. The description is as §1.
Assay [3] deals with Proto-oncogene tyrosine-protein kinase receptor Ret (Homo sapiens), P07949 [M918T]. The description is as §1.
Assay [4] deals with Proto-oncogene tyrosine-protein kinase receptor Ret (Homo sapiens), P07949 [R749T]. Described as §1.
The test system of assay [5] is Proto-oncogene tyrosine-protein kinase receptor Ret (Homo sapiens), P07949 [R813Q]. The description is as §1.
Assay [6] concerns Proto-oncogene tyrosine-protein kinase receptor Ret (Homo sapiens), P07949 [S891A]. Described as §1.
The subject of assay [7] is Proto-oncogene tyrosine-protein kinase receptor Ret (Homo sapiens), P07949 [V804L]. The description is as §1.
Assay [8] has as its system Proto-oncogene tyrosine-protein kinase receptor Ret (Homo sapiens), P07949 [V804M]. The assay is described as §1.
Assay [9] has as its system Proto-oncogene tyrosine-protein kinase receptor Ret (Homo sapiens), P07949 [Y791F]. The description is as §1.
Assay [10] has as its target Proto-oncogene tyrosine-protein kinase receptor Ret (Homo sapiens, UniProt P07949). Described as §1.
Assay [11] addresses Serine/threonine-protein kinase pim-2 (Homo sapiens, UniProt Q9P1W9). The experiment in a line: Selectivity interaction (KinomeScan (DiscoverX)) EUB0001079a PIM2. To be noted: at 1 µM.
For assay [12], the target named is T1, Casein kinase I isoform alpha-like (Homo sapiens) (UniProt Q8N752).
T1 sequence (whole entry): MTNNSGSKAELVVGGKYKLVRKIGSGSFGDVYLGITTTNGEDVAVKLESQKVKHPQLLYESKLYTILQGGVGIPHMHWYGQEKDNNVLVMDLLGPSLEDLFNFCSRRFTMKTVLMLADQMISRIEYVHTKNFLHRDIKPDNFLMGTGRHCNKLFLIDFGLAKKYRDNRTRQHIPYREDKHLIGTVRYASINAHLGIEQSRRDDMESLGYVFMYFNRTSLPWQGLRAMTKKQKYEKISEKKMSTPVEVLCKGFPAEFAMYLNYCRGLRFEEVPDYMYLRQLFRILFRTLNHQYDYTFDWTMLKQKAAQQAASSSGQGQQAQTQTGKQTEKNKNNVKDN
In words: Selectivity interaction (KinomeScan (DiscoverX)) EUB0000092b CSNK1A1L. The settings on record: at 10 µM.

Assay [13] has as its target DNA (cytosine-5)-methyltransferase 3A (Homo sapiens) (UniProt Q9Y6K1). The experiment in a line: Selectivity interaction (Methyltransferase screen (radiometric assays, panel of 8 PRMTs, 21 protein lysine methyltransferases, 3 DNA methyltransferases, and one RNA methyltransferase)) EUB0000271b DNMT3A.
In assay [14] the target is T2, Activin receptor type-1 (Homo sapiens) (UniProt Q04771).
T2 sequence (whole entry): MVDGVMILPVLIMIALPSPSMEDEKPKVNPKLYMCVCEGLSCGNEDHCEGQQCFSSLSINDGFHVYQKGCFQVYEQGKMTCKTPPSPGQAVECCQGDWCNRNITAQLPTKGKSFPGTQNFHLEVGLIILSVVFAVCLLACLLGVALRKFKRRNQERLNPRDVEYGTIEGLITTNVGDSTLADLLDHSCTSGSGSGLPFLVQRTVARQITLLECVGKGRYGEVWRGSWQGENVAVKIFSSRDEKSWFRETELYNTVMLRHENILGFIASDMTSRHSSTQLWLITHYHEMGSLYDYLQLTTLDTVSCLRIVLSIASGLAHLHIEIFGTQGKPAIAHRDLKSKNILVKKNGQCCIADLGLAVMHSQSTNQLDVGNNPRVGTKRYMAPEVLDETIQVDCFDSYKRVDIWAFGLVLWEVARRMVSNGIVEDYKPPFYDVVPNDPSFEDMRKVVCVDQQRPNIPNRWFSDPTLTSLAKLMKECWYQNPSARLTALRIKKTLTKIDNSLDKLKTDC
In words: Selectivity interaction (Kinase panel (Invitrogen)) EUB0000639a ACVR1. To be noted: at 200 nM.

Assay [15] has as its target Ribosomal protein S6 kinase alpha-1 (Homo sapiens, UniProt Q15418). In words: Selectivity interaction (ActivX KiNativ screen (kinase selectivity in THP-1 cell lysates)) EUB0000639a RPS6KA1. In kind it is subcellular. The settings on record: lysate, at 1 µM.
The target of assay [16] is Serine/threonine-protein kinase 32A (Homo sapiens) (UniProt Q8WU08). In words: Selectivity interaction (KinomeScan (DiscoverX)) EUB0000229b STK32A. The settings on record: at 10 µM.
Assay [17] addresses Calcium/calmodulin-dependent protein kinase kinase 2 (Homo sapiens) (UniProt Q96RR4). The experiment in a line: Selectivity interaction (Kinase panel (DSF assay)) EUB0001559a CAMKK2. For orientation: Differential scanning fluorimetry follows unfolding on heating by fluorescence.

Each structure is given as a SMILES string.

Sequence of Proto-oncogene tyrosine-protein kinase receptor Ret (Homo sapiens), P07949 [V804M] (P07949 whole entry V804M): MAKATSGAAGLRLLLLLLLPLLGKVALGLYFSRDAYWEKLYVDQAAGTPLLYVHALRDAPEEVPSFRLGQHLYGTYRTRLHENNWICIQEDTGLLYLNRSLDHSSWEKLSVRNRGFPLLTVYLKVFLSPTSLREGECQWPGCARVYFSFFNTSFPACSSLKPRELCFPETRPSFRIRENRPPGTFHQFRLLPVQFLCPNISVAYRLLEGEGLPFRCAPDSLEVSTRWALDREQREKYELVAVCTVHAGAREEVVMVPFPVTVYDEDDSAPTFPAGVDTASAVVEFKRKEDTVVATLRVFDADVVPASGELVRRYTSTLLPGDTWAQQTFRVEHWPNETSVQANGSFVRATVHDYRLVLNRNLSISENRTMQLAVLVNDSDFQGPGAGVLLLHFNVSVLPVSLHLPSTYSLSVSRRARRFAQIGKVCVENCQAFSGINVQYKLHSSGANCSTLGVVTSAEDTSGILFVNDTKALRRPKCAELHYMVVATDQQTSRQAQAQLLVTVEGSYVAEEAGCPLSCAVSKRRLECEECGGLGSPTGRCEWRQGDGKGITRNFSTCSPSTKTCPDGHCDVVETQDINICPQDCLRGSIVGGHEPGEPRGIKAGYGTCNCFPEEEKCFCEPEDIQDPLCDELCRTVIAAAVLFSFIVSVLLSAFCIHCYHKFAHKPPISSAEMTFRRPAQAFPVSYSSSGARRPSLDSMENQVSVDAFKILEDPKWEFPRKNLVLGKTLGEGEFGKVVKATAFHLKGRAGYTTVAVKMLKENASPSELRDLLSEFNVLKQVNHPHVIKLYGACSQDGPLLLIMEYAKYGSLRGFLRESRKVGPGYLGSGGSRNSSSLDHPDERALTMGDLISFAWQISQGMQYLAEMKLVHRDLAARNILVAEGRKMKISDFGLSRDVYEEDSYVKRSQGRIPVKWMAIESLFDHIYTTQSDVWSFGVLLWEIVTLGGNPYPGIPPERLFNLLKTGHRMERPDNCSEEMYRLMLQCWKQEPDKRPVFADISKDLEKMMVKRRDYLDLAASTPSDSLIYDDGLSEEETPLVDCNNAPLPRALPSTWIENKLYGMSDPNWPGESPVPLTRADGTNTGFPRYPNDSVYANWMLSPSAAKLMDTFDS
Sequence of Proto-oncogene tyrosine-protein kinase receptor Ret (Homo sapiens), P07949 [E762Q] (P07949 61-1114 E762Q): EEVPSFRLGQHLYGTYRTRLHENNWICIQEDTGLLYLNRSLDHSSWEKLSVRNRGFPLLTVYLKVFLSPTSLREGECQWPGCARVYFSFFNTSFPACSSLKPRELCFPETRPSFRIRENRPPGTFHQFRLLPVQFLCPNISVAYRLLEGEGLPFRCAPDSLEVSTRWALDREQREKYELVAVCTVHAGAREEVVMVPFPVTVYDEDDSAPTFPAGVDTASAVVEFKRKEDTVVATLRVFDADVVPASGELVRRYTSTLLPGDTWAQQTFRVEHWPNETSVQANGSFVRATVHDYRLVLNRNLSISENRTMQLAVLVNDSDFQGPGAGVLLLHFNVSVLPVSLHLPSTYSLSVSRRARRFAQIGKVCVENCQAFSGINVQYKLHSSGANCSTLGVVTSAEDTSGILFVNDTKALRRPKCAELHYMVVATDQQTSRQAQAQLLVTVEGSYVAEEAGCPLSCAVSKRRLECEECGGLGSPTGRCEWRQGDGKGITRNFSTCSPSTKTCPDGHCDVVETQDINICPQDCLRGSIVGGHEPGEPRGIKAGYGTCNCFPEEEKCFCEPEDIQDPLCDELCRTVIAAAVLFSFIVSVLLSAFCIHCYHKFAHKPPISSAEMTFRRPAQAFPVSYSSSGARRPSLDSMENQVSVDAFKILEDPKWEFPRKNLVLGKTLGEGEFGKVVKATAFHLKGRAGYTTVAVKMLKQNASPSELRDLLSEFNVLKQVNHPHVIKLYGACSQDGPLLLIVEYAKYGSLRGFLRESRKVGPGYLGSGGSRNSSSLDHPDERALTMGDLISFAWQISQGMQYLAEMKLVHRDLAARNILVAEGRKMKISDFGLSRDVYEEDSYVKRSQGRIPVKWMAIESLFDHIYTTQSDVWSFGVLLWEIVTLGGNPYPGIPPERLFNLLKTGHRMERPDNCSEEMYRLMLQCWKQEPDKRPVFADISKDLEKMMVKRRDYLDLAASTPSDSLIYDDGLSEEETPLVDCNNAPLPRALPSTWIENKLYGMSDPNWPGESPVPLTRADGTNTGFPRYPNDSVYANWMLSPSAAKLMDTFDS
Sequence of DNA (cytosine-5)-methyltransferase 3A (Homo sapiens) (Q9Y6K1 whole entry, looked up): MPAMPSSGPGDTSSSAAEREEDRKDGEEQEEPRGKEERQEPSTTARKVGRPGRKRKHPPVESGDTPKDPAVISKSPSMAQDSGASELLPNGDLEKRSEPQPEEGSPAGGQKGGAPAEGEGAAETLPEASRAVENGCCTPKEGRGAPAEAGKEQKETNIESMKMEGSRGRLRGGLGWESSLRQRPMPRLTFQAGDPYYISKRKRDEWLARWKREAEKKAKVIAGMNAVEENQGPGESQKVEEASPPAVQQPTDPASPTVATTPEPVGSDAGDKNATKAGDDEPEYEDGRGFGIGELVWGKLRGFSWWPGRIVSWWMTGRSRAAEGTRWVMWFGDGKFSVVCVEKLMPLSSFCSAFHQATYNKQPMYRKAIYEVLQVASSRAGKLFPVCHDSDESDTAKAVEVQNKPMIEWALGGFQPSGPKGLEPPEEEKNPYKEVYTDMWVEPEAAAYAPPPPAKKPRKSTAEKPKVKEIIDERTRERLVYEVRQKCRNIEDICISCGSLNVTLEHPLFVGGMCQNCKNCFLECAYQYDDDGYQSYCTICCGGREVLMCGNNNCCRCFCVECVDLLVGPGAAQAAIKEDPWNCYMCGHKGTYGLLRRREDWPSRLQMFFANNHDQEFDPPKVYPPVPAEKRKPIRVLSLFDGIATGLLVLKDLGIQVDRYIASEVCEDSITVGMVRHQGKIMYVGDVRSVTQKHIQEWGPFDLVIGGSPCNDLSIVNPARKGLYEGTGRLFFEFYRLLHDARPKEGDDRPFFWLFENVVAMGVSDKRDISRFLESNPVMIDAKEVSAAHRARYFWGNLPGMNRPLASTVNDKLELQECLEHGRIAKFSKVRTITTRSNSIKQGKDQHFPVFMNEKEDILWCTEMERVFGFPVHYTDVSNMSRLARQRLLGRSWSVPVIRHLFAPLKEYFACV
Sequence of Proto-oncogene tyrosine-protein kinase receptor Ret (Homo sapiens), P07949 [G691S] (P07949 whole entry G691S): as the sequence (P07949 whole entry V804M) above, with G691S, M804V counted along it
Sequence of Ribosomal protein S6 kinase alpha-1 (Q15418 whole entry): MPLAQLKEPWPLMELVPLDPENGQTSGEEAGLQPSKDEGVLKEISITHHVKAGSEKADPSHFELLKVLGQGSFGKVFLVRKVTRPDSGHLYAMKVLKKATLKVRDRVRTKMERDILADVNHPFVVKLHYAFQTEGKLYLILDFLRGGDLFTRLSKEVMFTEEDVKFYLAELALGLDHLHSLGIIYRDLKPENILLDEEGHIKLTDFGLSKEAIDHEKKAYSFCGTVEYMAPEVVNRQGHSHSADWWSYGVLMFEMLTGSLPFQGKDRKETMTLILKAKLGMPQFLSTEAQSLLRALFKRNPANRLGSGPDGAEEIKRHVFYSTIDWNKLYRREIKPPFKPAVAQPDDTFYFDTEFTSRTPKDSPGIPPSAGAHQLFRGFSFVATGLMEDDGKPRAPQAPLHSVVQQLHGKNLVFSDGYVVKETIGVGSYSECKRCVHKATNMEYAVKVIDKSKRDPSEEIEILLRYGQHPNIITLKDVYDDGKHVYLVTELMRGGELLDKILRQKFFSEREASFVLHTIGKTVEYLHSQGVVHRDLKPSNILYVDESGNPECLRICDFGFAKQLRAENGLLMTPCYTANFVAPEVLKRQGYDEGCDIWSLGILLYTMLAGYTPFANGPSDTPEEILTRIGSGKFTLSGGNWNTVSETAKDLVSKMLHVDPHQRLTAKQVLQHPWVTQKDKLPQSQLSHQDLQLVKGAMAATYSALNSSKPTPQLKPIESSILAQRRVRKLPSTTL

With `C=CC(=O)Nc1cccc(C(=O)Nc2ccc(Nc3cc(-c4[nH]c(SC)nc4C)ccn3)cc2)c1`, the % of control came to 95% in [1] (at 1 µM); 78% in [1] (at 5 µM); 90% in [2] (at 1 µM); 77% in [2] (at 5 µM); 97% in assay [3] (at 1 µM); 82% in assay [3] (at 5 µM). Also, the % of control stood at 96% in assay [4] (at 1 µM); 76% in assay [4] (at 5 µM); 98% in [5] (at 1 µM); 75% in assay [5] (at 5 µM); 95% in [6] (at 1 µM); 74% in assay [6] (at 5 µM). For the same compound, the % of control stood at 88% in [7] (at 1 µM); 80% in assay [7] (at 5 µM); 98% in assay [8] (at 1 µM); 90% in [8] (at 5 µM); 96% in assay [9] (at 1 µM); 71% in [9] (at 5 µM). For the same compound, the results for the % of control in assay [10] (at 1 µM) and in assay [10] (at 5 µM) were 87% and 72%, respectively.
In turn, `Nc1cnc(N2CCc3cc(S(=O)(=O)Nc4c(F)cc(Cl)cc4F)cc(N4CCCC4=O)c32)nc1` [TP-020n] displayed a % of control in assay [11] of 85%.
`CCC(=O)N1CCN(c2ccc(-n3c(=O)ccc4cnc5ccc(-c6cnc7ccccc7c6)cc5c43)cc2C(F)(F)F)CC1` returned a % of control in [12] of 81%.
`Cc1cc(C)cc([C@@H]2c3cc(C)ccc3NC(=O)CN2C(=O)c2ccc(Br)s2)c1`: the % of activity in assay [13] (at 1 µM) and in assay [13] (at 10 µM) was 99% throughout.
Regarding `CC[C@@H]1[C@H](F)C(=O)N[C@@H]1COc1nccc2cc(C(N)=O)c(OC)cc12` [ZIMLOVISERTIB], the results for the % of inhibition in assay [14] and in [15] were 25.7% and -3.5%, respectively.
For the compound `COc1cc(N(C)c2ccnc3ccc(C(F)(F)F)cc23)cc(OC)c1OC`, the % binding in assay [16] was determined as 82%.
Regarding `CN(C(=O)c1cnn2cccnc12)c1cc2c(cc1N1CCOCC1)C(=O)N(C[C@@H](F)C(C)(C)O)C2`, in [17], the dTM was 1.1 K.
